From patent US4461775A, “Hydroxythioether fatty acid derivatives” (McNeilab, Inc., priority 1982, dated 1984)

Columns and labels:
[1] = tested on: guinea pig ileum (SRS-A induced contraction); experiment: guinea pig ileum: prevention of the contraction of guinea pig ileum caused by SRS-A; type: cell-based; settings: Cavia porcellus; SRS-A induced contraction of isolated guinea pig ileum; atropine and chlorpheniramine (1×10^-5 M) present; read-out: G.P. Ileum IC50
Method: The tissue is exposed to 5 mg/ml histamine at 1-3 minute intervals until a reproducible response is obtained. Atropine (1×10^-5 M) and chlorpheniramine (1×10^-5 M) are added followed by 1-2 biological units of SRS-A. After washing the tissue, the response to BaCl2 (1×10^-3 M) was also noted.

[2] = tested on: guinea pig parenchymal strip (immunological release of SRS-A); experiment: guinea pig parenchymal strip: prevention of the contraction of guinea pig parenchymal tissue by immunological release of SRS-A; type: cell-based; settings: Cavia porcellus; egg albumin challenge of sensitized guinea pig lung strip; chlorpheniramine (10^-4 M), indomethacin (10^-5 M), test compound 30 minutes prior
Method: The guinea pigs were sacrificed and lungs removed. Strips of subpleural parenchyma were prepared from the left and right diaphragmatic lobes and suspended in a tissue bath under 1 g of tension. After a one hour equilibration period, a dose response to histamine (10^-7 to 10^-4 M) induced contractions was performed to determine maximal contraction. The tissues were then washed and allowed to relax to baseline. Chlorpheniramine (10^-4 M), indomethacin (10^-5 M) and test compound were added 30 minutes prior to challenge with egg albumin. The response to antigen was measured in milligrams of tension.

IC50 [1] [µM]	Structure (SMILES)	IC50 [2] [µM]
0.24	CCCCCCCCCCC[C@H](O)[C@H](CCCCC(=O)O)SCCC(=O)O (relative stereo) [Example 2, Threo 6-(2-Carboxyethyl)thio-7-hydroxyoctadecanoic Acid]	80
1.3	CCCCCCCCCCCC(O)C(CCCCC(=O)OC)SC[C@H](N)C(=O)OC (stereo partly drawn) [Example 3, Threo S-(6-Hydroxy-1-methoxycarbonyl-5-heptadecyl)-L-cysteine Methyl Ester]	> 100
	CCCCCCCCCCC[C@H](O)[C@@H](CCCCC(=O)OC)SCCC(=O)OC (relative stereo) [Example 4, Erythro Methyl 7-Hydroxy-6-{[2-(methoxycarbonyl)ethyl]-thio}octadecanoate]	10
1	CCCCCCCCCCC[C@H](O)[C@H](CCCCC(=O)OC)SCCC(=O)OC (relative stereo) [Example 1, Threo Methyl 7-Hydroxy-6{[2-(methoxycarbonyl)ethyl]thio}octadecanoate]	> 100
